# Results: patent US12678433B2, “Compounds for treatment of hemolysis-and inflammasome-associated diseases” (New York Blood Center, Inc., priority 2020, dated 2026)
# B1: hemopexin: a heme scavenging protein (protein, UniProt P02790 24-462, looked up)
# Hemopexin: TPLPPTSAHGNVAEGETKPDPDVTERCSDGWSFDATTLDDNGTMLFFKGEFVWKSHKWDRELISERWKNFPSPVDAAFRQGHNSVFLIKGDKVWVYPPEKKEKGYPKLLQDEFPGIPSPLDAAVECHRGECQAEGVLFFQGDREWFWDLATGTMKERSWPAVGNCSSALRWLGRYYCFQGNQFLRFDPVRGEVPPRYPRDVRDYFMPCPGRGHGHRNGTGHGNSTHHGPEYMRCSPHLVLSALTSDNHGATYAFSGTHYWRLDTSRDGWHSWPIAHQWPQGPSAVDAAFSWEEKLYLVQGTQVYVFLTKGGYTLVSGYPKRLEKEVGTPHGIILDSVDAAFICPGSSRLHIMAGRRLWWLDLKSGAQATWTELPWPHEKVDGALCMEKSLGPNSCSANGPGLYLIHGPNLYCYSDVEKLNAAKALPQPQNVTSLLGCTH
# What was measured:
# HO-1 = HO-1 expression in stimulated B cells; format: cell-based, human; settings: for HO-1 upregulation: 2.5 μM compound with 5 μM heme
# Source text: HO-1 is a key enzyme for heme degradation with multiple biologic activities attributed to its enzymatic byproducts. We analyzed HO-1 expression levels in human B cells before and after stimulation with our polyclonal B cell activation cocktail. […] We also found higher HO-1 levels in DOCK8^hi plasma cells (FIG. 8B).
# [1] = tested on: NLRP3 inflammasome pathway; test: NLRP3 inflammasome activation, IL-1β secretion by LPS-primed monocytes; format: cell-based, human; settings: in the presence/absence of hemin
# Experimental: FIG. 13A-D depicts human monocytes isolated from peripheral blood were cultured with LPS for 3 hours to prime pro-IL-1β production followed by addition of various NLRP3 pathway agonists to trigger IL-1β secretion without or with therapeutic reagents including hemin, quinine or hemin plus quinine (all at 2.5 μM concentration for all experiments except the dose response studies in FIGS. 13B and C). Levels of IL-1β, IL-6 and TNF-α in the culture supernatants was analyzed 30 min (for ATP treatment) or 2 hours (for nigericin and imiquimod) after addition of NLRP3 agonists. FIG. 13A: The effect of hemin, quinine and hemin plus quinine on IL-1β secretion triggered by various NLRP3 agonists. FIG. 13B: The dose dependent effect of hemin, quinine and hemin plus quinine. FIG. 13C: The effect of QA, CQ, AQ, and DHA in the presence/absence of hemin. FIG. 13D: The effect of hemin, quinine, or hemin plus quinine on IL-6 and TNF-α.
# [2] = tested on: purified naïve B cells from healthy donors; settings: for effect on plasma cell differentiation without or with heme: 2.5 μM compound, without or with 5 μM heme; for inhibition of B cell proliferation / inhibition of plasma cell differentiation: at the highest concentrations
# Experimental: Hemin and RBC lysate preparation. Hemin, dissolved in dimethyl sulfoxide (DMSO), stock concentration 10 mM, was diluted to 100 μM with serum-free RPMI 1640 culture medium just prior to addition to B cell cultures. For short-term experiments lasting less than 24 hr, a final concentration of 10 μM hemin was used whereas for longer-term culture up to 7 days, 2.5-5 μM final heme concentration was used. RBC lysates were freshly prepared (containing ~80 g/L hemoglobin) for same day use. Briefly, 4 ml whole blood from healthy donors was passed through Acrodisc WBC syringe filter (Pall Corporation) to remove white blood cells followed by two washes with Dulbecco's Phosphate Buffered Saline (D-PBS) (200×g, 10 min at room temperature with no brake) for removal of platelets. The RBC pellet was lysed with 3 times volume of distilled water for 10 min at 37° C. Cellular debris was pelleted by centrifugation at 4000×g for 10 min at 4° C. The RBC lysate was transferred to a new tube and 1/9 volume of 10×D-PBS added.
# Cell isolation and culture. Peripheral blood mononuclear cells (PBMCs) were prepared by Ficoll (GE Healthcare) density gradient centrifugation from healthy donor leukopak products as well as from sickle peripheral blood apheresis waste bags. Human naïve and memory B cells were isolated from PBMCs using a human memory B Cell Isolation Kit (Miltenyi Biotec) by collecting CD27− B cells (naïve B cells) and CD27+ B cell (memory B cells) separately. […] RPMI 1640 culture medium was used for all cell culture experiments (supplemented with 10% FBS, 100-unit penicillin-streptomycin, […], 1 mM sodium pyruvate, all from Thermo Fisher Scientific). Purified B cells were stained with CFSE (Cat #: C34554, Thermo Fisher Scientific) and cultured in U-bottom 96 well plates (2.5×10^5/well/200 μl culture medium) in the presence of goat anti-human IgA+IgG+IgM (H+L) F(ab′)2 fragment (2.5 μg/ml, Jackson ImmunoResearch), CD154 (10 ng/ml, R&D Systems) and CpG (ODN 7909, 1 nM, Cat #: tlrl-2006-1) without IL-2 for analysis of only CD38+ plasmablast differentiation or with IL-2 (5 ng/ml, Cat #:1081-IL-020, R&D Systems) in experiments to detect CD27^hiBlimp-1+ plasma cells. In addition, heme and various inhibitors were added to the cultures at the start point and incubated for 7 days.
# (§1) Cultured cells: stimulated B cells were transferred into U bottom 96 well plate and washed with 200 μl MACS buffer (D-PBS containing 0.5% BSA and 2 mM EDTA) at 300×g for 5 min at 4° C. After one wash, cells were stained for surface expression of CD19, CD38, CD27 using 25 μl staining buffer (anti-CD19, CD38, CD27 antibodies, diluted 200 fold with MACS buffer) for 30 min at 4° C. After one wash with 200 μl MACS buffer, cells were resuspended in 100 μl D-PBS and 50 μl Fixable Viability Dye eFluor™ 780 (1000 fold diluted with D-PBS, Thermo Fisher Scientific) was added for dead cell detection for 5 min at room temperature. Cells were washed one time with MACS buffer and 100 μl D-DPS was added just before flow cytometric analysis (LSRFortessa flow cytometer, BD Bioscience). For intracellular staining of IgG, Blimp-1 and HO-1, samples were first washed with 200 μl MACS buffer before addition of 150 μl Fixation/Permeabilization buffer (Thermo Fisher Scientific) for 45 min at 4° C. After fixation, samples were washed twice with 1× Permeabilization buffer (Thermo Fisher Scientific) and stained with 25 μl intracellular staining buffer (anti-human IgG, DOCK8, Blimp-1, HO-1 antibodies, diluted 200 fold with 1× Permeabilization buffer) for 45 min at 4° C., after which the cells were washed twice with Permeabilization buffer and 100p D-DPS was added prior to flow cytometric analysis.
# [3] = tested on: naïve B cells from Allo(−) and Allo(+) SCD patients; test: 7-day stimulated naïve B cell culture from SCD patients; format: cell-based, human; settings: for effect on heme-mediated inhibition of plasmablast differentiation: SnPPIX 2.5 μM, heme 2.5 μM
# Experimental: Human samples. All studies were approved by the institutional Review Boards of the New York Blood Center (NYBC) and Montefiore Health Center. […] The blood samples from SCD patients were processed within 18 hours after collection. For circulating DOCK8 expression studies in healthy controls, peripheral blood samples from de-identified, race-matched healthy donors were used. Leukocyte enriched products from de-identified healthy donors were used for purification of B cells for in vitro culture studies.
# Cell isolation and culture. Peripheral blood mononuclear cells (PBMCs) were prepared by Ficoll (GE Healthcare) density gradient centrifugation from healthy donor leukopak products as well as from sickle peripheral blood apheresis waste bags. Human naïve and memory B cells were isolated from PBMCs using a human memory B Cell Isolation Kit (Miltenyi Biotec) by collecting CD27− B cells (naïve B cells) and CD27+ B cell (memory B cells) separately. […] In addition, heme and various inhibitors were added to the cultures at the start point and incubated for 7 days.
# as §1
# [4] = QA 12 mg/kg intraperitoneally twice per day; cited from earlier work
# SCD mice = test: RBC alloimmunization in SCD mice after huGPA RBC transfusion (anti-GPA antibody in plasma); format: in vivo, mouse; settings: QA 12 mg/kg intraperitoneally twice per day
# Experimental: FIG. 10A-C. Effects of heme and quinine on mouse B cell differentiation in vitro: Splenic B cells were purified from C57BL/6J mice (n=3), stained with CFSE and cultured (5×10^4/well) for 7 days in the presence of anti-mouse IgM, IgG F(ab)′2 (10 μg/ml), anti-mouse CD40 antibody (1 μg/ml) and CpG (ODN1826) (1 μg/ml) without or with different doses of quinine and in the absence or presence of 2.5 μM or 5 μM concentration of hemin. Fold difference in proliferated B cells (FIG. 10A) and CD138+ plasma B cells (FIG. 10B) are shown. FIG. 10C: Representative experiment in SCD mice following transfusion of RBCs expressing human GPA (huGPA RBCs) collected from mice transgenic for human GPA in the absence or presence of quinine (QA). Briefly, mice were transfused twice with […] of huGPA RBCs, each transfusion given one week apart. Mice were treated intraperitoneally twice per day with QA (12 mg/kg, reported to maintain serum quinine levels at 0.5~1 μM) or the same volume PBS. Levels of anti-GPA antibody in plasma were measured 7 days after the last transfusion by flow cytometry.
# DOCK8 = DOCK8 expression and DOCK8hi/DOCK8lo subsets in stimulated B cells; format: cell-based, human; settings: quinine in the presence of heme
# Source text: We next tested the effect of cell-free heme on DOCK8 signaling during B cell differentiation. […] Heme treatment led to inhibition of CD27^hiBlimp-1^+ plasma cell differentiation (FIG. 2D, p=0.0195).
molecule,measurement,setting,value
"CCN(CC)Cc1cc(Nc2ccnc3cc(Cl)ccc23)ccc1O [AQ, amodiaquine]",HO-1 upregulation,HO-1,not
same,effect of other hemin binding small molecules on the inflammasome activation pathway,[1],no inhibitory effect
same,effect on plasma cell differentiation without or with heme,[2],inhibited plasma cell differentiation in the absence or presence of heme
"NCC(=O)O.[C-]#[O+].[C-]#[O+].[C-]#[O+].[Cl][Ru] [CORM-3, carbon monoxide releasing molecule-3]",inhibition of B cell proliferation,[2],38.7%±5.0%
same,inhibition of plasma cell differentiation,[2],91.2%±2.9%
"CCN(CC)CCCC(C)Nc1ccnc2cc(Cl)ccc12 (stereo not shown) [CQ, chloroquine]",HO-1 upregulation,HO-1,not
same,effect of other hemin binding small molecules on the inflammasome activation pathway,[1],no inhibitory effect
same,effect on plasma cell differentiation without or with heme,[2],inhibited plasma cell differentiation in the absence or presence of heme
"C[C@H]1[C@@H](O)O[C@@H]2O[C@@]3(C)CC[C@H]4[C@H](C)CC[C@@H]1[C@@]24OO3 [DHA, dihydroartemisinin]",effect of other hemin binding small molecules on the inflammasome activation pathway,[1],no inhibitory effect
"C=Cc1c2[n-]c(c1C)/C=c1\[n-]/c(c(C)c1C=C)=C\c1[n-]c(c(CCC(=O)O)c1C)C=c1[n-]/c(c(C)c1CCC(=O)O)=C\2.[Sn+4] [SnPPIX, tin protoporphyrin IX]",effect on heme-mediated inhibition of plasmablast cell differentiation,[2]; SnPPIX 2.5 μM with heme 2.5 μM,reversed
same,effect on differentiation,[2]; SnPPIX alone 2.5 μM,no effect
same,frequency of CD38+ plasmablasts,"[2]; SnPPIX alone 2.5 μM, vs 6.3%±2.7%",8.1%±3.5%
same,effect on B cell proliferation,"[2]; heme 2.5 μM, SnPPIX 2.5 μM, alone or together",little to no effect
same,effect on heme-mediated inhibition of plasmablast differentiation,[3]; Allo(+) SCD patients,less effect
same,effect on heme-mediated inhibition of plasmablast differentiation,[3]; Allo(−) SCD patients,reversed heme-mediated inhibition
same,"B cell proliferative responses, Allo(+) versus Allo(−)",[3]; in the presence of SnPPIX 2.5 μM,comparable
Cl.Cl.NCCNc1ncc(C(N)=O)c(Nc2cccc(C(F)(F)F)c2)n1 [Syk Inhibitor II],HO-1 in stimulated B cells,HO-1; SYK inhibitor relative to no SYK inhibitor,induction of HO-1
C=CC1=C(C)/C(=C/C2=NC(=C\c3[nH]c(/C=C4\NC(=O)C(C)=C4C=C)c(C)c3CCC(=O)O)/C(CCC(=O)O)=C2C)NC1=O [biliverdin],inhibition of B cell proliferation,[2],13.3%±3.5%
same,inhibition of plasma cell differentiation,[2],68.4%±18.6%
"C=C[C@H]1C[N@@]2CC[C@H]1C[C@H]2[C@H](O)c1ccnc2ccc(OC)cc12 [quinine, (R)-(6-Methoxyquinolin-4-yl)[(1S,2S,4S,5R)-5-vinylquinuclidin-2-yl]methanol]",serum quinine levels,[4],0.5~1 μM
same,RBC alloimmunization levels in vivo,SCD mice,did not lower
same,effect on DOCK8 expression,DOCK8,no significant effect
same,effect on plasma cell differentiation without or with heme,[2],required the presence of heme
same,cytotoxic effects (viability studies),[2]; except at the highest doses of heme plus quinine,minimal cytotoxic effects
same,effect on resistance to heme suppression,"[3]; Allo(+) patients, quinine plus heme",reversed resistance to heme suppression
same,effect on heme-mediated suppression of plasma cells,"[3]; Allo(−) SCD patients, quinine plus heme",further increased heme-mediated suppression
same,effect on plasma cell differentiation in the absence of heme,[3]; both groups of SCD patients,weak but significant inhibitory effect
B1,effect of pre-incubation with hemopexin on inhibition by RBC lysate or free heme,"[2]; hemopexin 2.5 μM, RBC lysate 1 g/L hemoglobin or heme 2.5 μM",reversed the inhibitory effect
